# System: CAF#2 (primary prostate cancer-associated fibroblasts of iCAF-like type)
# Experiment: drug sensitivity score (DSS2, normalised partial AUC of dose-response, 72 h CellTiter-Glo viability) (DSS (dimensionless)); higher = more sensitive (stronger growth inhibition / cytotoxicity); extreme values may be limits of the assay
# Procedure, shortened: (§1)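 Low-passage primary prostate cancer-associated fibroblasts, PF179T, WPMY-1, LNCaP and 22Rv1 cells were seeded into 384-well plates carrying pre-dispensed compounds at five doses covering a 10,000-fold range. After 72 h, viability was read by CellTiter-Glo 2.0 luminescence. Responses were scaled to vehicle and positive-control wells. The drug sensitivity score (DSS2) is a partial area under the fitted logistic dose–response curve divided by the log of its upper asymptote, computed in BREEZE; higher means more sensitive.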
row,SMILES,drug sensitivity score
1,CC(C)c1c(C(=O)Nc2ccccc2)c(-c2ccccc2)c(-c2ccc(F)cc2)n1CC[C@@H](O)C[C@@H](O)CC(=O)O [Atorvastatin] (tested concentration range 1-10000 nM),8.4
2,CC(=O)OC[C@H]1O[C@@H]([S-])[C@H](OC(C)=O)[C@@H](OC(C)=O)[C@@H]1OC(C)=O.CCP(CC)CC.[Au+] [Auranofin] (tested concentration range 0.2-2500 nM),5
3,Cc1nc2cccc(N)c2c(=O)n1C1CCC(=O)NC1=O (stereo unspecified) [Avadomide] (tested concentration range 1-10000 nM),0
4,CNC(=O)c1ccccc1Sc1ccc2c(/C=C/c3ccccn3)n[nH]c2c1 [Axitinib] (tested concentration range 1-10000 nM),5.1
5,Nc1ncn([C@@H]2O[C@H](CO)[C@@H](O)[C@H]2O)c(=O)n1 [Azacitidine] (tested concentration range 1-10000 nM),3
6,Cc1cc(-c2nc(-c3ccc(OC(F)(F)F)cc3)no2)nn1Cc1ccnc(N2CCN(C3CC3)CC2)c1 [BAY 87-2243] (tested concentration range 0.1-1000 nM),1.6

# System: CAF#3 (primary prostate cancer-associated fibroblasts of myCAF-like type)
# Experiment: as above
# Procedure, shortened: as §1
row,SMILES,drug sensitivity score
1,CC#CC(=O)N1CCC[C@H]1c1nc(-c2ccc(C(=O)Nc3ccccn3)cc2)c2c(N)nccn12 [Acalabrutinib] (tested concentration range 0.1-1000 nM),0
2,COc1cc(C)c(/C=C/C(C)=C/C=C/C(C)=C/C(=O)O)c(C)c1C [Acitretin] (tested concentration range 1-10000 nM),0.2
3,C=CCn1c(=O)c2cnc(Nc3ccc(N4CCN(C)CC4)cc3)nc2n1-c1cccc(C(C)(C)O)n1 [Adavosertib] (tested concentration range 1-10000 nM),2.7
4,CN(C)C/C=C/C(=O)Nc1cc2c(Nc3ccc(F)c(Cl)c3)ncnc2cc1O[C@H]1CCOC1 [Afatinib] (tested concentration range 0.1-1000 nM),0
5,Cn1ncc(Cl)c1-c1cc(C(=O)N[C@H](CN)Cc2cccc(F)c2)sc1Cl [Afuresertib] (tested concentration range 0.1-1000 nM),0
6,CCc1cc2c(cc1N1CCC(N3CCOCC3)CC1)C(C)(C)c1[nH]c3cc(C#N)ccc3c1C2=O [Alectinib] (tested concentration range 0.1-1000 nM),0
7,COc1cc(Nc2ncc3c(n2)-c2ccc(Cl)cc2C(c2c(F)cccc2OC)=NC3)ccc1C(=O)O [Alisertib] (tested concentration range 1-10000 nM),3.3
8,Oc1ncnc2[nH]ncc12 [Allopurinol] (tested concentration range 1-10000 nM),0
9,Cc1nc(NC(=O)N2CCC[C@H]2C(N)=O)sc1-c1ccnc(C(C)(C)C(F)(F)F)c1 [Alpelisib] (tested concentration range 0.2-2500 nM),2.1
10,CN1CC[C@H](c2c(O)cc(O)c3c(=O)cc(-c4ccccc4Cl)oc23)[C@H](O)C1 [Alvocidib] (tested concentration range 1-10000 nM),16.5
11,CCN(CC)CCNC(=O)c1c(C)[nH]c(/C=C2\C(=O)Nc3ccc(-c4csc(-c5ccccc5)n4)cc32)c1C [Amcasertib] (tested concentration range 1-10000 nM),0
12,CCC1(c2ccc(N)cc2)CCC(=O)NC1=O (stereo unspecified) [Aminoglutethimide] (tested concentration range 1-10000 nM),0.2
13,COc1cc(NS(C)(=O)=O)ccc1Nc1c2ccccc2nc2ccccc12 [Amsacrine] (tested concentration range 1-10000 nM),3.1
14,O=C1CN2Cc3c(ccc(Cl)c3Cl)N=C2N1 [Anagrelide] (tested concentration range 1-10000 nM),7.2
15,CC(C)(C#N)c1cc(Cn2cncn2)cc(C(C)(C)C#N)c1 [Anastrozole] (tested concentration range 1-10000 nM),0
16,CNC(=O)c1ccc(N2C(=S)N(c3cnc(C#N)c(C(F)(F)F)c3)C(=O)C23CCC3)cc1F [Apalutamide] (tested concentration range 1-10000 nM),0.8
17,N#CC1(c2ccc(NC(=O)c3cccnc3NCc3ccncc3)cc2)CCCC1 [Apatinib] (tested concentration range 1-10000 nM),1.8
18,O=C(Nc1ccc(OC(F)(F)Cl)cc1)c1cnc(N2CC[C@@H](O)C2)c(-c2cc[nH]n2)c1 [Asciminib] (tested concentration range 0.1-1000 nM),0
19,CC(C)c1c(C(=O)Nc2ccccc2)c(-c2ccccc2)c(-c2ccc(F)cc2)n1CC[C@@H](O)C[C@@H](O)CC(=O)O [Atorvastatin] (tested concentration range 1-10000 nM),6.1
20,CC(=O)OC[C@H]1O[C@@H]([S-])[C@H](OC(C)=O)[C@@H](OC(C)=O)[C@@H]1OC(C)=O.CCP(CC)CC.[Au+] [Auranofin] (tested concentration range 0.2-2500 nM),5.1
21,Cc1nc2cccc(N)c2c(=O)n1C1CCC(=O)NC1=O (stereo unspecified) [Avadomide] (tested concentration range 1-10000 nM),0.4
22,CNC(=O)c1ccccc1Sc1ccc2c(/C=C/c3ccccn3)n[nH]c2c1 [Axitinib] (tested concentration range 1-10000 nM),5.5
23,Nc1ncn([C@@H]2O[C@H](CO)[C@@H](O)[C@H]2O)c(=O)n1 [Azacitidine] (tested concentration range 1-10000 nM),1.8
24,Cc1cc(-c2nc(-c3ccc(OC(F)(F)F)cc3)no2)nn1Cc1ccnc(N2CCN(C3CC3)CC2)c1 [BAY 87-2243] (tested concentration range 0.1-1000 nM),0.5

# System: CAF#4 (primary prostate cancer-associated fibroblasts of iCAF-like type)
# Experiment: as above
# Procedure, shortened: as §1
row,SMILES,drug sensitivity score
1,CC#CC(=O)N1CCC[C@H]1c1nc(-c2ccc(C(=O)Nc3ccccn3)cc2)c2c(N)nccn12 [Acalabrutinib] (tested concentration range 0.1-1000 nM),0
2,COc1cc(C)c(/C=C/C(C)=C/C=C/C(C)=C/C(=O)O)c(C)c1C [Acitretin] (tested concentration range 1-10000 nM),0.1
3,C=CCn1c(=O)c2cnc(Nc3ccc(N4CCN(C)CC4)cc3)nc2n1-c1cccc(C(C)(C)O)n1 [Adavosertib] (tested concentration range 1-10000 nM),8.9
4,CN(C)C/C=C/C(=O)Nc1cc2c(Nc3ccc(F)c(Cl)c3)ncnc2cc1O[C@H]1CCOC1 [Afatinib] (tested concentration range 0.1-1000 nM),0
5,Cn1ncc(Cl)c1-c1cc(C(=O)N[C@H](CN)Cc2cccc(F)c2)sc1Cl [Afuresertib] (tested concentration range 0.1-1000 nM),1.7
6,CCc1cc2c(cc1N1CCC(N3CCOCC3)CC1)C(C)(C)c1[nH]c3cc(C#N)ccc3c1C2=O [Alectinib] (tested concentration range 0.1-1000 nM),0
7,COc1cc(Nc2ncc3c(n2)-c2ccc(Cl)cc2C(c2c(F)cccc2OC)=NC3)ccc1C(=O)O [Alisertib] (tested concentration range 1-10000 nM),4.5
8,Oc1ncnc2[nH]ncc12 [Allopurinol] (tested concentration range 1-10000 nM),0
9,Cc1nc(NC(=O)N2CCC[C@H]2C(N)=O)sc1-c1ccnc(C(C)(C)C(F)(F)F)c1 [Alpelisib] (tested concentration range 0.2-2500 nM),2.6
10,CN1CC[C@H](c2c(O)cc(O)c3c(=O)cc(-c4ccccc4Cl)oc23)[C@H](O)C1 [Alvocidib] (tested concentration range 1-10000 nM),12.7
11,CCN(CC)CCNC(=O)c1c(C)[nH]c(/C=C2\C(=O)Nc3ccc(-c4csc(-c5ccccc5)n4)cc32)c1C [Amcasertib] (tested concentration range 1-10000 nM),7.1
12,CCC1(c2ccc(N)cc2)CCC(=O)NC1=O (stereo unspecified) [Aminoglutethimide] (tested concentration range 1-10000 nM),0
13,COc1cc(NS(C)(=O)=O)ccc1Nc1c2ccccc2nc2ccccc12 [Amsacrine] (tested concentration range 1-10000 nM),2.4
14,O=C1CN2Cc3c(ccc(Cl)c3Cl)N=C2N1 [Anagrelide] (tested concentration range 1-10000 nM),0
15,CC(C)(C#N)c1cc(Cn2cncn2)cc(C(C)(C)C#N)c1 [Anastrozole] (tested concentration range 1-10000 nM),0
16,CNC(=O)c1ccc(N2C(=S)N(c3cnc(C#N)c(C(F)(F)F)c3)C(=O)C23CCC3)cc1F [Apalutamide] (tested concentration range 1-10000 nM),0
17,N#CC1(c2ccc(NC(=O)c3cccnc3NCc3ccncc3)cc2)CCCC1 [Apatinib] (tested concentration range 1-10000 nM),0
18,O=C(Nc1ccc(OC(F)(F)Cl)cc1)c1cnc(N2CC[C@@H](O)C2)c(-c2cc[nH]n2)c1 [Asciminib] (tested concentration range 0.1-1000 nM),0
19,CC(C)c1c(C(=O)Nc2ccccc2)c(-c2ccccc2)c(-c2ccc(F)cc2)n1CC[C@@H](O)C[C@@H](O)CC(=O)O [Atorvastatin] (tested concentration range 1-10000 nM),3.5
20,CC(=O)OC[C@H]1O[C@@H]([S-])[C@H](OC(C)=O)[C@@H](OC(C)=O)[C@@H]1OC(C)=O.CCP(CC)CC.[Au+] [Auranofin] (tested concentration range 0.2-2500 nM),3.3
21,Cc1nc2cccc(N)c2c(=O)n1C1CCC(=O)NC1=O (stereo unspecified) [Avadomide] (tested concentration range 1-10000 nM),2.2
22,CNC(=O)c1ccccc1Sc1ccc2c(/C=C/c3ccccn3)n[nH]c2c1 [Axitinib] (tested concentration range 1-10000 nM),4.2
23,Nc1ncn([C@@H]2O[C@H](CO)[C@@H](O)[C@H]2O)c(=O)n1 [Azacitidine] (tested concentration range 1-10000 nM),2.3
24,Cc1cc(-c2nc(-c3ccc(OC(F)(F)F)cc3)no2)nn1Cc1ccnc(N2CCN(C3CC3)CC2)c1 [BAY 87-2243] (tested concentration range 0.1-1000 nM),0

# System: CAF#5 (primary prostate cancer-associated fibroblasts of myCAF-like type)
# Experiment: as above
# Procedure, shortened: as §1
row,SMILES,drug sensitivity score
1,CC#CC(=O)N1CCC[C@H]1c1nc(-c2ccc(C(=O)Nc3ccccn3)cc2)c2c(N)nccn12 [Acalabrutinib] (tested concentration range 0.1-1000 nM),0.8
2,COc1cc(C)c(/C=C/C(C)=C/C=C/C(C)=C/C(=O)O)c(C)c1C [Acitretin] (tested concentration range 1-10000 nM),0.8
3,C=CCn1c(=O)c2cnc(Nc3ccc(N4CCN(C)CC4)cc3)nc2n1-c1cccc(C(C)(C)O)n1 [Adavosertib] (tested concentration range 1-10000 nM),5.9
4,CN(C)C/C=C/C(=O)Nc1cc2c(Nc3ccc(F)c(Cl)c3)ncnc2cc1O[C@H]1CCOC1 [Afatinib] (tested concentration range 0.1-1000 nM),0
5,Cn1ncc(Cl)c1-c1cc(C(=O)N[C@H](CN)Cc2cccc(F)c2)sc1Cl [Afuresertib] (tested concentration range 0.1-1000 nM),2
6,CCc1cc2c(cc1N1CCC(N3CCOCC3)CC1)C(C)(C)c1[nH]c3cc(C#N)ccc3c1C2=O [Alectinib] (tested concentration range 0.1-1000 nM),0.3
7,COc1cc(Nc2ncc3c(n2)-c2ccc(Cl)cc2C(c2c(F)cccc2OC)=NC3)ccc1C(=O)O [Alisertib] (tested concentration range 1-10000 nM),6
8,Oc1ncnc2[nH]ncc12 [Allopurinol] (tested concentration range 1-10000 nM),0
9,Cc1nc(NC(=O)N2CCC[C@H]2C(N)=O)sc1-c1ccnc(C(C)(C)C(F)(F)F)c1 [Alpelisib] (tested concentration range 0.2-2500 nM),3.1
10,CN1CC[C@H](c2c(O)cc(O)c3c(=O)cc(-c4ccccc4Cl)oc23)[C@H](O)C1 [Alvocidib] (tested concentration range 1-10000 nM),15.4
11,CCN(CC)CCNC(=O)c1c(C)[nH]c(/C=C2\C(=O)Nc3ccc(-c4csc(-c5ccccc5)n4)cc32)c1C [Amcasertib] (tested concentration range 1-10000 nM),6.6
12,CCC1(c2ccc(N)cc2)CCC(=O)NC1=O (stereo unspecified) [Aminoglutethimide] (tested concentration range 1-10000 nM),0

# Reference: the supplement of paper PMC12592484
